Results taken from US10995070B2, “Acetyl-CoA carboxylase modulators” (Monsanto Technology LLC, priority 2013, dated 2021).

Experiments:
Phytophthora capsici = experiment: Fungal growth inhibition assay, P. capsici; assay type: cell-based; details: 48 h
From the text: (§1) Spores were isolated from previously sub-cultured plates of Botrytis cinerea, Phytophthora capsici, Fusarium moniliforme, Fusarium viguliforme, Collectotrichum graminicola, and Diplodia maydis. All spores were filtered and collected in a sterile glass bowl to isolate the spores from the mycelia. The isolation and sub-culture plate condition for each pathogen is described below.
Spore isolation for P. capsici: Three to five days prior to the assay a 2-3 week old V8 (17%)+CaCO3 (3 g/L)+20 g agar plate was removed from a dark 25° C. incubator and cut up into small chunks. One plate was separated into two deep well plates and rinsed with sterile distilled water three times. The cut up pieces were incubated under light in a sterile filter hood with 25 ml of sterile distilled water. On the day of the assay the water was removed and 5-7 ml of fresh sterile distilled water was added. One plate was incubated at 4° C. for 45-60 minutes and then placed at room temperature for about 45-60 minutes. The spores were collected in a sterile filter bowl containing a fluted piece of filter paper. The spores were vortexed in a conical tube for 30-60 seconds to remove the flagella of the zoospores after isolation.
(§2) After spore isolation, pathogen spores were counted on a hemocytometer to calculate the spores/ml. In 17% V8 liquid media containing 3 g/L CaCO3, isolated spores were diluted to individual concentrations based on the growth curves at 48 hours of each pathogen. The spore concentrations for each pathogen were as follows: B. cinerea—10,000 sp/ml; P. capsici—300 sp/ml; F. monliforme—500 sp/ml; F. virguliforme—500 sp/ml; C. graminicola—3,000 sp/ml; and D. maydis—3,000 sp/ml.
(§3) Chemistry stocks were dissolved in DMSO at 2.5 mg/ml. Chemistry was diluted in a 96-well stock plate in five-fold dilutions to obtain a final concentration of 50, 10, and 2 ppm in vitro. The final concentration of the positive control after the five-fold dilutions was as follows: soraphen—0.5, 0.1, and 0.02 ppm. Negative controls on each plate included 2% DMSO, water containing spores and media, and a blank for background subtraction.
(§4) In a 96-well plate the spore solution, chemistries, and controls were combined to make the final solution concentrations mentioned above. Upon addition of the chemistry, an OD600 reading was done to assess chemical precipitation. The 96-well plates were incubated in plastic tubs containing wet paper towels under the following conditions, 25° C. in the dark for P. capsici and B. cinerea or 26° C. with light/dark cycle for C. graminicola, D. maydis, F. virguliforme, F. monliforme. Plate readings were repeated at 24 and 48 hrs. Visual ratings were performed at 24 and 48 hrs to check for precipitation and confirm efficacy. Visual and OD600 ratings of the chemistry at 48 hours were compared to the 2% DMSO control to determine the percent of pathogen growth inhibition.

Diplodia maydis = experiment: Fungal growth inhibition assay, D. maydis; assay type: cell-based; details: 48 h
Method: as §1
Spore isolation for D. maydis: A 3-4 week old PDA (pre-mix) plate was removed from 26° C. incubator with a light/dark 12 hour cycle and the mycelia were treated with 6-7 ml of sterile distilled water, scraped into a sterile petri dish, and smashed to open the pycnidia. The spores were then collected in a sterile filter bowl containing a fluted piece of filter paper and poured into a conical tube.
as §2, §3, §4

Fusarium moniloforme = experiment: Fungal growth inhibition assay, F. moniliforme; assay type: cell-based; details: 48 h
Method: as §1
Spore isolation for F. moniliforme: A 1 week old PDA (potato dextrose agar, pre-mix) plate was removed from 26° C. incubator with a light/dark 12 hour cycle and the mycelia were treated with 5-10 ml of filter sterilized Triton X 100 (0.05%). The mycelia were scraped to re-suspend the spores. The spores were then collected in a sterile filter bowl containing a fluted piece of filter paper.
as §2, §3, §4

[1] = tested on: Collectotrichum graminicola; experiment: Fungal growth inhibition assay, C. graminicola; assay type: cell-based; details: Colletotrichum graminicola, 48 h
Method: as §1
Spore isolation for C. graminicola: A 1-2 week old oatmeal agar (pre-mix) plate was removed from 26° C. incubator with a light/dark 12 hour cycle and the mycelia were treated with 10-15 ml of filter sterilized distilled water. The mycelia were scraped to re-suspend the spores. The spores were then collected in a sterile filter bowl containing a piece of sterile cheesecloth and poured into a conical tube.
as §2, §3, §4

Fusarium virguliforme = experiment: Fungal growth inhibition assay, F. virguliforme; assay type: cell-based; details: 48 h
Method: as §1
Spore isolation for F. virguliforme: A 2-3 week old PDA (pre-mix) plate containing cefotaxime (100 mg/L) and kanamycin (50 mg/L) was removed from 26° C. incubator with a light/dark 12 hour cycle and the mycelia were treated with 5-10 ml of filter sterilized distilled water. The mycelia were scraped to re-suspend the spores. The spores were then collected in a sterile filter bowl containing a fluted piece of filter paper and poured into a conical tube.
as §2, §3, §4

[2] = molecular target: Ustilago maydis acetyl CoA carboxylase (ACCase) (Ustilago maydis, UniProt A0A0D1DYD5); experiment: ACCase enzymatic assay (coupled PK/LDH, NADH OD340); assay type: biochemical; details: read-out: ACCase Inhibitory Activity IC50
Chain of Ustilago maydis acetyl CoA carboxylase (ACCase) (A0A0D1DYD5 1-2185): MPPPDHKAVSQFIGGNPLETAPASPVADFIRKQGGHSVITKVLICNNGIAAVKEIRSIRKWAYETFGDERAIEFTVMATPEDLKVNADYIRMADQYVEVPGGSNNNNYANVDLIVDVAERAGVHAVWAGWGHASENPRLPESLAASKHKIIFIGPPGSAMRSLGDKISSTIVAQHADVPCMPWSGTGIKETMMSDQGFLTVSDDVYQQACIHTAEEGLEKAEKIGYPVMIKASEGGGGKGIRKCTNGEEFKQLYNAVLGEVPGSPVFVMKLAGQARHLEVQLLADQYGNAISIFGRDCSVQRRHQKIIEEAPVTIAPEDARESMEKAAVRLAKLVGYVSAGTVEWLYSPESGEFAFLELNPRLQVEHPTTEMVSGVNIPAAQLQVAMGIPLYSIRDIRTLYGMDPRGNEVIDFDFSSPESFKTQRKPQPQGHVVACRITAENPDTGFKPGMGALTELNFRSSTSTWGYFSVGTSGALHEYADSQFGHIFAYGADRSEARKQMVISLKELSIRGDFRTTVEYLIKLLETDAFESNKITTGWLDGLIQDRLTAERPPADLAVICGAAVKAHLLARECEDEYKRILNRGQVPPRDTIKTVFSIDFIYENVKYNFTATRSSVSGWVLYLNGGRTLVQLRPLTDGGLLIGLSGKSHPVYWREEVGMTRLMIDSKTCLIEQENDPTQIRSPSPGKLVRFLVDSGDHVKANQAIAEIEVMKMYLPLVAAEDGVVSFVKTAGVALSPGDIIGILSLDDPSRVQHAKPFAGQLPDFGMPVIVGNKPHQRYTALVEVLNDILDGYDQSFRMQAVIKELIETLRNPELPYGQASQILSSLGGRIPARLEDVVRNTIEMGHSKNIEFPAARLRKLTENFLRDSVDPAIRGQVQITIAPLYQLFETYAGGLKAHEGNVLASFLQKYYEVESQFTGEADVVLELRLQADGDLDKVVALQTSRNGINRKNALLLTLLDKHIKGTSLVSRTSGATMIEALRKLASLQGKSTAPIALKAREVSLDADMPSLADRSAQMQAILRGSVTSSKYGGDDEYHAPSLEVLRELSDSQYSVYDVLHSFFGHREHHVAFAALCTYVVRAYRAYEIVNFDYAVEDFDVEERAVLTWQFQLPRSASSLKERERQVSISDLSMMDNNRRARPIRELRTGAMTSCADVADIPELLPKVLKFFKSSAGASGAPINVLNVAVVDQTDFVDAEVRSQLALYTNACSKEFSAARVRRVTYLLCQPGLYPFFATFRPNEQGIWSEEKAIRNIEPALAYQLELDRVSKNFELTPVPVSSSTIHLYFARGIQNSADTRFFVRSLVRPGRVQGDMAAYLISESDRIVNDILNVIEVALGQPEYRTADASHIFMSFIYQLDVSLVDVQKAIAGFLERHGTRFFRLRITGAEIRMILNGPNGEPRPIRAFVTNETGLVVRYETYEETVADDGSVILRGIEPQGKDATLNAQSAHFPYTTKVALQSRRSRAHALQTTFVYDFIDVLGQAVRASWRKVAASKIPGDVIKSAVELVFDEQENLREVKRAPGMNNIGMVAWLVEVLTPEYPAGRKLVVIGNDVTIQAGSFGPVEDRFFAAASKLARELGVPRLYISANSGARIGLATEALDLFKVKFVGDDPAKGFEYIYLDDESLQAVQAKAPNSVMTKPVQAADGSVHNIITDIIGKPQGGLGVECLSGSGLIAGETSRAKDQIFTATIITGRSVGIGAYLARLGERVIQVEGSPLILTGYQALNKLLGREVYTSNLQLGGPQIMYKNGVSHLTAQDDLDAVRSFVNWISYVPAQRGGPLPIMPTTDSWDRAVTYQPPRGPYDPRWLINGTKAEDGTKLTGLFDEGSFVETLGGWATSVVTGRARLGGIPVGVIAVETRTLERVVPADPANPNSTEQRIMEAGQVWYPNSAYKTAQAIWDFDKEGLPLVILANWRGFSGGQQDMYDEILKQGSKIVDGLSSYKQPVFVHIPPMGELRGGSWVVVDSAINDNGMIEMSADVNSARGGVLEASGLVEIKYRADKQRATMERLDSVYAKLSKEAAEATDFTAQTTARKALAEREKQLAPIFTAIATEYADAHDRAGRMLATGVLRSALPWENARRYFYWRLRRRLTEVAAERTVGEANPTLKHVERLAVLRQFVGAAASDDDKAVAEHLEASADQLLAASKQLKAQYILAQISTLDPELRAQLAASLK
Method: Ustilago maydis acetyl CoA carboxylase (ACCase) was cloned, expressed, and purified as described (Weatherly et al, Biochem. J., 2004) and the test compounds were tested in a 96-well plate format. Primary in vitro screening consisted of obtaining dose response data at 100, 33, 10, and 1 μM inhibitor. Actives in the primary screen were re-tested to establish IC50 values.
Direct detection of the conversion of acetyl CoA to malonyl CoA by ACCase was not feasible, but during this process ATP is converted to ADP which allowed for detection through a standard reaction coupling with ADP recycling to the oxidation of NADH. Thus, ACCase activity was measured via kinetic OD340 measurements of the conversion of NADH to NAD in a coupled reaction involving the conversion of phosphoenolpyruvate (PEP) to lactate.
The complete 200 ul reaction mixture contained 52.5 mM HEPES (pH8), 2.625 mM MgCl2, 1 mM ATP, 0.525 mM DTT, 11 mM NaHCO3, 1% DMSO with or without inhibitor, 1× pyruvate kinase/lactate dehydrogenase (PK/LDH), 0.3 mM NADH, 0.5 mM PEP, and 5 μg ACCase. The reactions were incubated at 30° C. for 10 minutes and then initiated by the addition of 0.33 mM acetyl CoA. The initiated reactions were read immediately via plate reader at OD340 and kinetic readings were acquired every 20 s for 15 minutes while keeping the temperature at 30° C.
A slope of the kinetic curve was determined by using the 2 to 7 minute data which was then calculated as percent inhibition relative to the no inhibitor control.
The primary screens were conducted in duplicate and the IC50's conducted in triplicate. Averages were reported along with standard deviation calculation to generate error bars.
Each plate contained its own controls and consisted of a DMSO only control, 5-fold titration series of soraphen from 2 μM to 3.2 nM, and an ADP coupled reaction control. […]
A slope of the kinetic curve was determined by using the 2 to 7 minute data which was then calculated as percent inhibition relative to the no inhibitor control. Those compounds which had no significant PK/LDH inhibition at or above the IC50 in the ACCase assay, were considered to be valid modulators of only ACCase.

| SMILES | inhibition at 2 ppm (Phytophthora capsici) | inhibition at 10 ppm (Phytophthora capsici) | inhibition at 50 ppm (Phytophthora capsici) | inhibition at 2 ppm (Diplodia maydis) | inhibition at 10 ppm (Diplodia maydis) | inhibition at 2 ppm (Fusarium moniloforme) | inhibition at 10 ppm (Fusarium moniloforme) | inhibition at 2 ppm [1] | inhibition at 10 ppm [1] | inhibition at 50 ppm [1] | inhibition at 2 ppm (Fusarium virguliforme) | inhibition at 10 ppm (Fusarium virguliforme) | IC50 [2] | inhibition at 50 ppm (Diplodia maydis; 50 ppm) | inhibition at 50 ppm (Fusarium moniloforme; 50 ppm) |
| --- | --- | --- | --- | --- | --- | --- | --- | --- | --- | --- | --- | --- | --- | --- | --- |
| O=C(O)Cc1ccc(-c2nc3ccccc3c(-c3ccccc3)c2Cl)s1 [Formula Ib-ii, 2-(5-(3-chloro-4-phenylquinolin-2-yl)thiophen-2-yl)acetic acid] | 18% | 31% | 49% | 55% | 70% | 39% | 45% | 0% | 67% | 78% | 31% | 41% | 110 nM | – | – |
| O=C(O)Cc1ccc(-c2cc(-c3ccccc3)c3ccccc3n2)s1 [Formula Ib-iv, 2-(5-(4-phenylquinolin-2-yl)thiophen-2-yl)acetic acid] | 0% | 11% | 80% | 8% | 45% | 17% | 31% | 0% | 53% | 97% | 4% | 29% | 145 nM | 89% | 36% |
